{"source": "patent US20130331764A9", "about": "“ANTICANCER AGENT DELIVERY SYSTEM USING pH-SENSITIVE METAL NANOPARTICLES” (priority 2010, published 2013)", "tested_on": "Breast cancer cells", "assay": "Drug test: intranuclear delivery of doxorubicin by nuclear yellow-reddish fluorescence (fluorescence microscopy)", "type": "cell-based", "procedure": "In this Example, the anticancer drug doxorubicin was employed. Doxorubicin works to induce cell death by intercalating DNA. It emits yellow-reddish fluorescence at near 600 nm. When the conjugates penetrate into cancer cells, doxorubicin is dissociated from the gold nanoparticles by hydrolysis under an acidic condition and translocates into the nucleus which thus emits yellow-reddish fluorescence.\nBreast cancer cells in test groups were incubated with the pH-sensitive gold nanoparticle-doxorubicin conjugates to induce the internalization of the conjugate (middle panel, FIG. 6).\nFor comparison, cells were incubated with doxorubicin-free pH-sensitive gold nanoparticles (left panel, FIG. 6) and with doxorubicin alone (right panel, FIG. 6) under the same condition.\nThe intranuclear delivery of doxorubicin can be qualitatively analyzed in terms of nuclear yellow-reddish fluorescence as measured by fluorescence microscopy."}
{"smiles": "COc1cccc2c1C(=O)c1c(O)c3c(c(O)c1C2=O)C[C@@](O)(C(=O)CO)C[C@@H]3O[C@H]1C[C@H](N)[C@H](O)[C@H](C)O1", "note": "[doxorubicin]", "values": [{"measurement": "nuclear fluorescence of doxorubicin", "setting": "3 hours of incubation", "value": "the fluorescence was intensified"}, {"measurement": "nuclear fluorescence of doxorubicin", "setting": "one hour of incubation", "value": "started to exhibit fluorescence"}]}
